Measurements reported in ChEMBL document CHEMBL1141099, “Discovery of N-(2,6-dimethylphenyl)-substituted semicarbazones as anticonvulsants: hybrid pharmacophore-based design” (2005).

Tests used:
Rattus norvegicus [1] = assay: Number of rats protected at a dose of 30 mg/Kg when given oral at 4 hr upon maximal electroshock seizure; Total number of rats = 4; format: functional
Rattus norvegicus [2] = assay: Number of rats protected at a dose of 30 mg/Kg when given oral at 1 hr upon maximal electroshock seizure; Total number of rats = 4; format: functional
Mus musculus [3] = assay: Minimum dose required for anticonvulsant activity when given i.p., at 0.5 hr in mice upon maximal electroshock seizure; format: functional
Rattus norvegicus [4] = assay: Number of rats protected at a dose of 30 mg/Kg when given oral at 0.25 hr upon maximal electroshock seizure; Total number of rats = 4; format: functional
Mus musculus [5] = assay: Minimum dose required for anticonvulsant activity when given i.p., at 0.5 hr in mice upon subcutaneous pentylenetetrazole seizure; format: functional
Rattus norvegicus [6] = assay: Number of rats protected at a dose of 30 mg/Kg when given oral at 2 hr upon maximal electroshock seizure; Total number of rats = 4; format: functional
Rattus norvegicus [7] = assay: Number of rats protected at a dose of 30 mg/Kg when given oral at 0.5 hr upon maximal electroshock seizure; Total number of rats = 4; format: functional
Mus musculus [8] = assay: Minimum dose required for anticonvulsant activity when given i.p., at 4 hr in mice upon maximal electroshock seizure; format: functional
Mus musculus [9] = assay: Minimum dose required for anticonvulsant activity when given i.p., at 0.5 hr in mice upon neurotoxicity seizure using rotarod test; format: functional
Mus musculus [10] = assay: Minimum dose required for anticonvulsant activity when given i.p., at 2 hr in mice upon subcutaneous strychnine seizure; format: functional
Mus musculus [11] = assay: Minimum dose required for anticonvulsant activity when given i.p., at 0.5 hr in mice upon subcutaneous strychnine seizure; format: functional
Rattus norvegicus [12] = species on record: Rattus norvegicus; assay: Ex vitro percentage inhibition activity against GABA-T enzyme at a concentration of 1.25 uM after 4.5 h; format: functional
Rattus norvegicus [13] = species on record: Rattus norvegicus; assay: Ex vitro percentage inhibition activity against GABA-T enzyme at a concentration of 1.25 uM after 6 h; format: functional
[14] = molecular target: 4-aminobutyrate aminotransferase, mitochondrial (Rattus norvegicus) (UniProt P50554); assay: In vitro percentage inhibition activity against GABA-T enzyme at a concentration of 1.25 uM after 4.5 h
[15] = molecular target: 4-aminobutyrate aminotransferase, mitochondrial (Rattus norvegicus) (UniProt P50554); assay: In vitro percentage inhibition activity against GABA-T enzyme at a concentration of 1.25 uM after 6 h
Rattus norvegicus [16] = species on record: Rattus norvegicus; assay: Ex vitro percentage inhibition activity against GABA-T enzyme at a concentration of 1.25 uM after 3 h; format: functional
[17] = molecular target: 4-aminobutyrate aminotransferase, mitochondrial (Rattus norvegicus) (UniProt P50554); assay: In vitro percentage inhibition activity against GABA-T enzyme at a concentration of 1.25 uM after 3 h
Mus musculus [18] = assay: Minimum dose required for anticonvulsant activity when given i.p., in mice upon neurotoxicity seizure using rotarod test
Rattus norvegicus [19] = assay: Effect on GABA level in rat whole brain concentration after 2 hr post-treatment at a dose of 100 mg/Kg when given i.p.; Control 48.4; format: functional
Rattus norvegicus [20] = assay: Effect on GABA level in rat whole brain concentration after 7 days post-treatment at a dose of 30 mg/Kg when given orally; Control 50.5; format: functional
Mus musculus [21] = assay: Mean sleeping time evaluated for CNS study using the pentobarbital-induced narcosis model at a dose of 100 mg/Kg when given i.p., in mice (No. of animals 6)

4-aminobutyrate aminotransferase, mitochondrial (Rattus norvegicus), sequence (P50554 28-500 limits assumed): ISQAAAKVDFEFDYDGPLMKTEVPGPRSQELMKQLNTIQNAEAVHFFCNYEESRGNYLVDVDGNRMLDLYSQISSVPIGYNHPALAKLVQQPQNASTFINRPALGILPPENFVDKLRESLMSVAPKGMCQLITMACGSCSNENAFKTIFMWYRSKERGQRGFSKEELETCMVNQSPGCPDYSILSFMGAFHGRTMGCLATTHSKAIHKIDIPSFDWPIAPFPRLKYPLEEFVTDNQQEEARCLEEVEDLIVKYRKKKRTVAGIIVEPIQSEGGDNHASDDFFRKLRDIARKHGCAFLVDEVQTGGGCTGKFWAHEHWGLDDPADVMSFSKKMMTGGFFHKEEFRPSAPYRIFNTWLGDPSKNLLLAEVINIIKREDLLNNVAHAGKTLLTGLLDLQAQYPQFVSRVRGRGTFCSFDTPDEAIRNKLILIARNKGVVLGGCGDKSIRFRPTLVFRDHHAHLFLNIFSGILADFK

| Structure (SMILES) | Activity (Rattus norvegicus [1]) | Activity (Rattus norvegicus [2]) | MES (Mus musculus [3]) [mg/kg] | Activity (Rattus norvegicus [4]) | PTZ seizure (Mus musculus [5]) [mg/kg] | Activity (Rattus norvegicus [6]) | Activity (Rattus norvegicus [7]) | MES (Mus musculus [8]) [mg/kg] | NT (Mus musculus [9]) [mg/kg] | STY seizure (Mus musculus [10]) [mg/kg] | STY seizure (Mus musculus [11]) [mg/kg] | also measured |
| --- | --- | --- | --- | --- | --- | --- | --- | --- | --- | --- | --- | --- |
| Cc1cccc(C)c1NC(=O)NN=C1CCCC1 | 1 | 1 | 100 | 2 | 300 | 3 | 2 | 300 | 300 | – | – | – |
| Cc1cccc(C)c1NC(=O)N/N=C\c1ccco1 | 3 | 1 | 100 | 0 | 300 | 4 | 2 | 300 | 300 | 300 | 100 | – |
| Cc1cccc(C)c1NC(=O)N/N=C/c1ccccc1Cl | 4 | 1 | 100 | 2 | 300 | 1 | 1 | 300 | 300 | 100 | 30 | – |
| CC(C)=NNC(=O)Nc1c(C)cccc1C | 2 | 4 | 100 | 3 | 300 | 3 | 4 | 300 | 300 | 100 | 100 | – |
| C/C(=N\NC(=O)Nc1c(C)cccc1C)c1ccc([N+](=O)[O-])cc1 | 1 | 2 | 300 | 1 | 300 | 3 | 2 | 300 | 300 | 300 | 100 | – |
| Cc1cccc(C)c1NC(=O)NN=C1CCCCC1 | 3 | 2 | 100 | 1 | – | 4 | 1 | 300 | 300 | 300 | 100 | – |
| Cc1cccc(C)c1NC(=O)N/N=C/c1ccccc1 | 4 | 3 | 100 | 1 | 300 | 3 | 3 | 100 | 300 | 100 | 30 | – |
| NNCCc1ccccc1 [PHENELZINE] | – | – | – | – | – | – | – | – | – | – | – | Inhibition (Rattus norvegicus [12]): 85%; Inhibition (Rattus norvegicus [13]): 65%; inhibition [14]: 75%; inhibition [15]: 62%; Inhibition (Rattus norvegicus [16]): 25%; inhibition [17]: 0% |
| COc1ccc(/C=N/NC(=O)Nc2c(C)cccc2C)cc1 | 3 | 3 | 100 | 1 | 300 | 3 | 4 | 300 | 300 | 100 | 30 | – |
| Cc1cccc(C)c1NC(=O)NN=C(Cc1ccccc1)Cc1ccccc1 | 0 | 1 | 300 | 0 | – | 0 | 1 | 300 | 300 | – | 300 | – |
| CCCC(CCC)C(=O)O [VALPROIC ACID] | – | – | – | – | – | – | – | – | – | – | – | NT (Mus musculus [18]): 300 mg/kg |
| C/C(=N\NC(=O)Nc1c(C)cccc1C)c1cccc(N)c1 | 3 | 1 | 100 | 1 | – | 2 | 3 | 300 | 300 | 300 | 100 | – |
| CN1C(=O)CC(=O)N(c2ccccc2)c2cc(Cl)ccc21 [CLOBAZAM] | – | – | – | – | – | – | – | – | – | – | – | Activity (Rattus norvegicus [19]): 101 ug/100mg of tissue; Activity (Rattus norvegicus [20]): 110 ug/100mg of tissue |
| C/C(=N\NC(=O)Nc1c(C)cccc1C)c1ccccc1 | 3 | 4 | 100 | 1 | 300 | 3 | 2 | 300 | – | 100 | 30 | – |
| C/C(=N\NC(=O)Nc1c(C)cccc1C)c1ccccc1O | 4 | 2 | 100 | 3 | 300 | 3 | 1 | 300 | – | 300 | 100 | – |
| Cc1cccc(C)c1NC(=O)N/N=C/c1ccc([N+](=O)[O-])cc1 | 1 | 2 | 100 | 1 | 300 | 1 | 1 | 300 | 300 | 100 | 30 | – |
| C/C(CC(C)C)=N/NC(=O)Nc1c(C)cccc1C | 2 | 2 | 100 | 1 | – | 4 | 2 | 300 | – | 100 | 30 | – |
| Cc1cccc(C)c1NC(=O)NN=C(c1ccccc1)c1ccccc1 | 0 | 1 | 100 | 1 | 300 | 1 | 1 | 300 | 300 | – | 300 | – |
| CCC1(c2ccccc2)C(=O)NC(=O)NC1=O [PHENOBARBITAL] | – | – | – | – | – | – | – | – | – | – | – | NT (Mus musculus [18]): 100 mg/kg; Time (Mus musculus [21]): 54 min |
